In patent US20040214221A1, “High density labeling of DNA with modified or "chromophore" carrying nucleotides and DNA polymerases used” (priority 1999, published 2004):
Where two headings read alike, the source gives them in different places.

Assays:
[1] = test system: Tgo exo^− polymerase; format: biochemical, Thermococcus species
[2] = biological target: Vent exo^− polymerase (Thermococcus litoralis, UniProt P30317, D141A/DEL1082-1471/DEL495-1032/E143A); test: Primer extension with modified dNTPs, Vent exo- polymerase; format: biochemical, Thermococcus species; settings: template NucT15 (18 possible)
[3] = test system: Klenow-fragment of Chy DNA pol I; test: Primer extension with modified dNTPs, Chy Klenow polymerase; format: biochemical, Carboxydothermus hydrogenoformans; settings: template NucT15

Chain of Vent exo^− polymerase (P30317 with tags, fused parts or gaps D141A/DEL1082-1471/DEL495-1032/E143A): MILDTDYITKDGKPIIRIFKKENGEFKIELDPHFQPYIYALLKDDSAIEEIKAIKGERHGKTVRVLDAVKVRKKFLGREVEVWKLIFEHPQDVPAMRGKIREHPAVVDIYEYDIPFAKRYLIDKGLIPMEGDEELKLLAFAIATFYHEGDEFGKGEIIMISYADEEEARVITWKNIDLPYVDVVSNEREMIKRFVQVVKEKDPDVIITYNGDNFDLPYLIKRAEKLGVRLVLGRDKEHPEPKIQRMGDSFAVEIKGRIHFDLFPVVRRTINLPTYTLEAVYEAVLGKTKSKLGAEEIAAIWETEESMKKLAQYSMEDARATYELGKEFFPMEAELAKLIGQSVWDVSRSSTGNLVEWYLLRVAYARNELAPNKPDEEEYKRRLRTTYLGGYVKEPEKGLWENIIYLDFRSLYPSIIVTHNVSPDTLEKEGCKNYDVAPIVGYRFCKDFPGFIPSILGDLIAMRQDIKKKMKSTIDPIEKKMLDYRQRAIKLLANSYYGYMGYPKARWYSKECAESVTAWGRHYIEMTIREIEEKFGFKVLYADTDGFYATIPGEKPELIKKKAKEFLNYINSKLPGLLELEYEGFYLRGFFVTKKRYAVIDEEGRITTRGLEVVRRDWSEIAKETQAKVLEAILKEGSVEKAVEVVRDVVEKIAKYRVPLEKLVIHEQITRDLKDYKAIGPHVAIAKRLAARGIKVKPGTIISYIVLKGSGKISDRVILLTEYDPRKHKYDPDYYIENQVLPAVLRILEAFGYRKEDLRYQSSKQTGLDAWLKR

Rhodamin-green-5(6)-carboxyamido-ε-aminocaproyl-[5-(3-aminoallyl)-2′desoxy-uridin-5′-triphosphate] [Rhodamine-green-X-dUTP]
insertions in neighbouring positions [1]: up to 18
major products (number of insertions) [1]: 13-17
substrate activity / incorporation [1]: very good substrate for the polymerase

Fluorescein-12-dUTP
elongation of Hex7c7Gd stretch with dUTP derivative ([1]; template NucT3, 50 μM each, 0,1 and 1 unit polymerase): complete elongation
product at lower polymerase concentration ([1]; template NucT15, 0,1 unit/reaction): full length products were detectable

CCCCC#Cc1cn([C@H]2C[C@H](O)[C@@H](COP(=O)(O)OP(=O)(O)OP(=O)(O)O)O2)c2nc(N)[nH]c(=O)c12 [Hex^7c^7Gd, 7-Hexinyl-7-desaza-dGTP]
consecutive incorporations [1]: five
subsequent positions polymerized [1]: up to 21

Cy5-10-dUTP
positions inserted [2]: 13

Rhodamin-green-5(6)-carboxyamido-[5-(3-aminoallyl)-2′desoxy-uridin-5′-triphosphate] [Rhodamine-green-dUTP]
insertions in neighbouring positions [1]: 15-16

O=C(CCCCCNC(=O)CCCNC(=O)CCCC[C@@H]1SC[C@@H]2NC(=O)N[C@@H]21)NC/C=C/c1cn([C@H]2C[C@H](O)[C@@H](COP(=O)(O)OP(=O)(O)OP(=O)(O)O)O2)c(=O)[nH]c1=O [Biotin-16-dUTP]
elongation of Hex7c7Gd stretch with dUTP derivative [1]: a high molecular weight product is formed
insertions in neighbouring positions [1]: 18
product at lower polymerase concentration [1]: full length products were detectable

CCCCC#Cc1cn([C@H]2C[C@H](O)[C@@H](COP(=O)(O)OP(=O)(O)OP(=O)(O)O)O2)c2ncnc(N)c12 [Hex^7c^7Ad, 7-Hexinyl-7-Desaza-dATP]
adjacent positions into which derivative was incorporated [1]: 15

Cc1c(CC(=O)NCCCCCC(=O)NC/C=C/c2cn([C@H]3C[C@H](O)[C@@H](COP(=O)(O)OP(=O)(O)OP(=O)(O)O)O3)c(=O)[nH]c2=O)c(=O)oc2cc(N)ccc12 [AMCA-6-dUTP]
elongation of Hex7c7Gd stretch with dUTP derivative [1]: complete elongation
substrate activity [3]: high substrate activity

TMR-6-dUTP [TM-Rhodamine-dUTP]
positions inserted [2]: 14

DIG-11-dUTP
product at lower polymerase concentration [1]: full length products were detectable
substrate activity / incorporation [1]: high substrate activity
